Experimental findings from a melting point compilation (Tetko et al.; mined from patent text by program, amines drawn as free bases though some values may be those of a salt) are described below.

The compound `C=CCN1CCCN(c2c(C)cccc2Cl)C1=S` showed a melting point of 82 to 84 °C.
Next, `CC(C)(C)c1cc(OCCCCCCc2nnn[nH]2)cc(C(C)(C)C)c1O`: 128 to 131 °C.
`CCOc1nn(-c2ccc(C(F)(F)F)cn2)cc1CCCOc1cc(CCC(=O)O)cc(OC)c1`: the melting point fell in the range of 99 to 100 °C.
Consider `N#Cc1cc2[nH]c(=O)c(=O)n(C3CCCCC3)c2c2ccccc12`, for which the melting point is more than 300 °C.
Next, `Cc1ccc(C(=O)c2cccc3c2CCCC3C(=O)O)cc1` (stereo not drawn): 102 to 103 °C; `CSc1nc(-c2ccc(=O)n(C)n2)c(-c2ccccc2)nc1N`: 204 to 206 °C; `COC(=O)C(=O)c1c[nH]c2c1ccc1c3ccccc3[nH]c12`: more than 290 °C.
On to `COC(=O)CCCOc1ccccc1I`, for which the melting point is 66.5 to 67 °C.
As to `Nc1nc2c(c(=O)[nH]1)n(CC(=O)c1ccc(Cl)cc1)c(=O)n2C1OC(CO)C(O)C1O` (stereo not drawn), the melting point is more than 230 °C.
`Cc1nn(-c2c(Cl)cc(C(F)(F)F)cc2Cl)nc1S` came in with a melting point of 86 to 89 °C.
Turning to `O=C(O)c1ccc2c(c1)C(=O)N(c1ccc(C3(c4ccc(N5C(=O)c6ccc(C(=O)O)cc6C5=O)cc4)c4ccccc4-c4ccccc43)cc1)C2=O`, the melting point was 328 to 331 °C.
`O=C1COc2ccc(C3=Nc4ccccc4SC3)cc2N1`: the melting point fell in the range of 280 to 281 °C.
Take `CC(=O)N1N=C(c2ccc(N)cc2)c2cc(Cl)c(Cl)cc2CC1C` (stereo not drawn): the melting point was 242 to 243 °C.
Compound `COC(=O)[C@H](NC(=O)OC(C)(C)C)c1ccc(O)cc1` registered a melting point of 140 to 142 °C.
Take `Cc1ccc(NC(=O)c2ccccc2N)cc1C(F)(F)F`: the melting point was in the range of 138 to 140 °C.
The compound `O=C(NNS(=O)(=O)c1ccccc1)c1ccc2c(c1)OCO2` registered a melting point of 156 to 158 °C.
In turn, `O=C(O)c1cccc(Oc2ccc(C(=O)c3ccc(F)cc3)cc2)c1` returned a melting point of 158 to 160 °C.
With `CCCCNc1c(C#N)cnc2cc(OCCOC)c(OC)cc12`, the melting point is 99 to 102 °C.
For `C=C(C)C(=O)NCCCCCC(=O)Nc1cc(Cl)c(C)c(Cl)c1O`, the melting point lay in the range of 111 to 115 °C.
In turn, `O=C1CSCC(=O)C1C(=O)Nc1ccc(Cl)c(C(F)(F)F)c1` registered a melting point of 108 to 110 °C.
Next, `COC(=O)C=C(C)c1ccc2c(ccn2S(=O)(=O)c2ccccc2)c1`: 80 to 85 °C.
On to `CN(C(=O)OC(C)(C)C)c1cc(Oc2ccc(OCc3ccccc3)cc2)ccc1[N+](=O)[O-]`, for which the melting point lay within 108 to 110 °C.
`O=C1C(Cc2ccccc2)C(c2ccccc2)=Nc2ccccc2N1Cc1ccccc1` (stereo not drawn) had a melting point of 173 to 174 °C.
As for `COC(=O)CCCC(C)(C)c1ccc(C(=O)c2ccccc2C(=O)O)cc1`, the melting point lay within 138 to 140 °C.
Next, `O=C(O)CCCCCCCn1cc(-c2ccccc2)c(-c2ccccc2)nc1=O`: 121 to 123 °C; `CCCCCCCCCCCCCCCCCCCCC(=O)Nc1ccn(C2OC(CO)C(O)C2O)c(=O)n1` (stereo not drawn): 139 to 142 °C; `CN1C(=O)[C@H](NC(=O)CCC2CCCCC2)[N+]([O-])=C(c2ccccc2)c2ccccc21`: 222 to 224 °C.
`CCCCc1oc2ccccc2c1C(=O)NCc1ccc2c(-c3ccc(C)cc3)c(OCc3nnn[nH]3)ccc2c1` displayed a melting point of 162 to 166 °C.
In turn, `C=C(COc1cc(Cl)ccc1C=NNP(=O)(OCC)OCC)C(C)C` yielded a melting point of 103 to 106 °C.
For the compound `O=C(O)c1cccc(N2C(=O)c3cccc([N+](=O)[O-])c3C2=O)c1`, the melting point fell in the range of 354 to 355 °C.
`COc1cccc2c1CCN(C)C2CN1CCC(c2ccccc2)C1` (stereo not drawn) yielded a melting point of 152 to 153 °C.
Compound `C#CC1(O)CCC2C3CC(C)C4=CC(=O)CCC4C3CCC21CC` (stereo not drawn) returned a melting point of 148 to 151 °C.
`CCS(=O)c1nc2ccc([N+](=O)[O-])cc2s1` (stereo not drawn) displayed a melting point of 145 to 149 °C.
For `CCOC(=O)c1c(Cl)nc2cc(Cl)c(F)cc2c1CCl`, the melting point was more than 250 °C.
For the compound `O=C(Cl)c1cccnc1Oc1cccc(Cl)c1`, the melting point lay in the range of 72 to 74 °C.
`OC(CNCCCCCCOCCCc1ccc(N2CCCCC2)cc1)c1ccc2c(n1)COC(c1ccccc1)O2` (stereo not drawn) showed a melting point of 75 to 76 °C.
Consider `N#Cc1ccc(CN2c3ccc(Cl)cc3C=C(C(=O)O)C2C(F)(F)F)cc1` (stereo not drawn), for which the melting point lay in the range of 258 to 260 °C.
In turn, `Cc1ccc(N)cc1Nc1nccc(-c2cccnc2)n1` returned a melting point of 138 to 140 °C.
Take `CC(=C(Cl)Cl)c1ccccc1Nc1ccccc1C`: the melting point was 49 to 51 °C.
Regarding `CC12CCC(F)CC1=CCC1C2CCC2(C)C(O)CCC12` (stereo not drawn), the melting point is 165 to 166 °C.
Then `O=C(O)Cc1c(-c2ccco2)nn(-c2ccccc2)c1-c1ccco1`, with 199 to 202 °C; and `CC(Br)(CBr)CS(=O)(=O)Oc1ccc([N+](=O)[O-])cc1` (stereo not drawn), with 56 to 58 °C; and `O=Cc1ccc(OCc2coc(-c3ccccc3)n2)cc1`, with 94 to 96 °C.
Regarding `COc1ccc(-c2cc(Nn3cnnc3)ccc2C#N)cc1`, the melting point lay in the range of 176 to 177 °C.
Then `CCCCC(=O)Oc1cccc(NC(=O)CC(C)=O)c1`, with 65 °C; and `CN(c1cccc(-c2ccnc3c([N+](=O)[O-])cnn23)c1)S(=O)(=O)c1ccccc1`, with 177 to 179 °C.
Turning to `CCOC(=O)Nc1nc(C)co1`, the melting point turned out to be 126 °C.
For `O=C1C(=Cc2cccc(OCCCCl)c2)Cc2ccccc21`, the melting point was 73 to 75 °C.
As to `Cc1c(F)c(F)c(F)c2c1c(=O)c(C(=O)O)cn2-c1ccc(O)cc1`, the melting point fell in the range of 287 to 288 °C.
Then `CC(C)CCc1sc(NC(=O)c2cc([N+](=O)[O-])cn2C)nc1C(=O)O`, with 296 to 300 °C; and `C=C1CC2(CN3CCC2CC3)SC1C` (stereo not drawn), with 164 to 168 °C.
Next, `O=C(Nc1ccc(-c2ccccc2)s1)c1ccccc1`: 202 to 203 °C; `CCOC(=O)CC[C@H](NC(=O)c1ccc(CCc2cnc3[nH]c(NC(=O)C(C)(C)C)nc(=O)c3c2)s1)C(=O)OCC`: 57 to 87 °C; `NC(=O)CC(=O)NCCCOc1cccc(CN2CCCCC2)c1`: 85.3 to 88.3 °C.
Then `COc1ccc(-c2c(NC(C)C(C)(C)C)c(=O)c2=O)cc1` (stereo not drawn), with 179 to 181 °C; and `O=c1[nH]c(-c2ccc(F)cc2)nc2ccc(CN3CCOCC3)cc12`, with 322 to 323 °C; and `COC(=O)Nc1cccc2c1C(=O)C1(O)c3ccc(C(C)C)cc3OC21O` (stereo not drawn), with 96 to 99 °C.
In turn, `Fc1ccc(C(=S)N2CCCC(c3ccc(Cl)c(Cl)c3)=N2)cc1F` gave a melting point of 135 to 136 °C.
Compound `CCCCc1oc2ccccc2c1C(=O)NCc1ccc2c(-c3ccccc3)c(OCC#N)ccc2c1` gave a melting point of 135 to 138 °C.
In turn, `O=c1c2c(Cc3ccc(OC(F)(F)F)cc3)n[nH]c2c2cccnc2n1-c1ccccc1` came in with a melting point of 216 to 218 °C.
In turn, `CC(=O)c1ccc(CCNS(=O)(=O)c2ccc(C)cc2)cc1` had a melting point of 124 to 126 °C.
In the case of `Oc1cccc2c(CCc3ccccc3)ccnc12`, the melting point fell in the range of 102 to 103 °C.
`Cc1oc(-c2ccccc2)nc1CCOc1ccc(/C=C/C#N)cn1` registered a melting point of 116 to 117 °C.

What is called melting point is the temperature of the solid-liquid transition.
